According to PubChem BioAssay AID651913 (NMMLSC, 2012):

These molecules were tested on MG13-hCCR5 cells, FAP-MG2p fluorogen binding, flow cytometry MCF (assay: interference with FAP-CCR5 fluorogen signal, dose response, counter-screen for beta2AR agonist project, cell-based, FAP-tagged human CCR5, Powderset5 (AID 651913)).

First: O=C(C1CCCN1S(=O)(=O)c1ccc(Cl)cc1)N1CCN(c2ccccn2)CC1 (stereo not given)
Second: CN(CC(=O)N1CCN(c2ccccn2)CC1)S(=O)(=O)c1ccc(Cl)cc1
The EC50 of the first is 24-fold higher: 257 nM for the first, 10.8 nM for the second.

Compared with `CCC1CCCCN1S(=O)(=O)c1ccc(NC(C)=O)cc1` (stereo not given), `CN(CC(=O)N1CCN(c2ccc(F)cc2)CC1)S(=O)(=O)c1ccc(Br)cc1` is 2.3-fold higher in EC50: 455 nM for the first, 1030 nM for the second.

`CN(CC(=O)N1CCN(c2ccc(F)cc2)CC1)S(=O)(=O)c1cc(Cl)ccc1Cl` gave an EC50 of 54.5 nM.
